Experimental data as given in patent publication US20240050574A1, “IONIZABLE LIPIDS” (eTheRNA immunotherapies NV, priority 2020, published 2024).

What was measured:
[1] = mRNA encapsulation efficiency by Ribogreen RNA assay; assay type: physicochemical; details: for E.E. (encapsulation efficiency): N/P 10; for % encap: eGFP mRNA
Description: Lipid based nanoparticles are produced by microfluidic mixing of an mRNA solution in sodium acetate buffer (100 mM, pH4) and lipid solution in a 2:1 volume ratio at a speed of 9 mL/min using the NanoAssemblr Benchtop (Precision Nanosystems). The lipid solution contained a mixture of the ionizable lipid of interest, DSPC, DOPC or DOPE (Avanti), Cholesterol (Sigma) and DMG-PEG2000 (Sunbright GM-020, NOF corporation. The 4 lipids were mixed at 6 different molar ratios. LNPs were dialyzed against TBS (10000 times more TBS volume than LNP volume) using slide-a-lyzer dialysis cassettes (20K MWCO, 3 mL, ThermoFisher). Size, polydispersity and zeta potential were measured with a Zetasizer Nano (Malvern). mRNA encapsulation was measured by standard Ribogreen RNA assay (Invitrogen). […]
(§1) LNP formulations were prepared using a modified procedure of a method previously described for siRNA LNP synthesis. All formulations were prepared in a sterile manner with a N/P ratio of 10. All lipid components were dissolved in ethanol at molar ratios of 50:10:38.5:1.5 mol % (ionizable lipid/DSPC/Cholesterol/DMG-PEG2000). DSPC, Cholesterol and DMG-PEG2000 were purchased from Avanti Polar Lipids (Alabaster, Alabama, USA), while the Ionizable lipids are synthesized in-house. The final lipid concentration in ethanol was fixed at 10 mg/mL. E7 mRNA was dissolved in 100 mM acetate buffer (Sigma Aldrich, Saint-Louis, Missouri, USA) pH 4. The ethanol and aqueous phase were combined using a microfluidic mixer (NanoAssemblr® BenchTop (Precision Nanosystems, Vancouver, BC) in a 2:1 (aqueous:ethanol) ratio. Formulations were dialysed afterwards against 1× Sterile TBS pH 7.4 (Sigma Aldrich, Saint-Louis, Missouri, USA) using Slide-A-Lyzer® dialysis cassettes with a MWCO of 20.000 Da (Thermo Scientific, Massachusetts, USA) for 18 hours. Afterwards, the purified formulations were concentrated using Amicon ultra centrifugal filters (EMD Millipore, Massachusetts, USA). Finally, the exact concentration and E.E. % was determined through a Ribogreen Assay prior to final dilution with TBS (100 μg/mL E7 mRNA per formulation. All formulations were characterized for size and PDI using Dynamic Light Scattering Zetasizer Nano-ZS (Malvern Pananlytical Ltd., Malvern, UK) and stored afterwards at 4° C. The physico-chemical characteristics of each formulation can be found in Table 5.

[2] = LNP size and polydispersity index by Dynamic Light Scattering (Malvern Zetasizer); assay type: physicochemical
[3] = as above; assay type: physicochemical; details: N/P 10
Description: Lipid based nanoparticles are produced by microfluidic mixing of an mRNA solution in sodium acetate buffer (100 mM, pH4) and lipid solution in a 2:1 volume ratio at a speed of 9 mL/min using the NanoAssemblr Benchtop (Precision Nanosystems). The lipid solution contained a mixture of the ionizable lipid of interest, DSPC, DOPC or DOPE (Avanti), Cholesterol (Sigma) and DMG-PEG2000 (Sunbright GM-020, NOF corporation. The 4 lipids were mixed at 6 different molar ratios. LNPs were dialyzed against TBS (10000 times more TBS volume than LNP volume) using slide-a-lyzer dialysis cassettes (20K MWCO, 3 mL, ThermoFisher). Size, polydispersity and zeta potential were measured with a Zetasizer Nano (Malvern). mRNA encapsulation was measured by standard Ribogreen RNA assay (Invitrogen).
Size and Poly Dispersity Index were assessed by Dynamic Light Scattering (DLS) on a Malvern Zetasizer. MC-3 is the ionizable lipid used in Onpattro and is considered the state-of-the art.
as §1

[4] = Body weight after intratumoral LNP administration (B16F10 model); assay type: in vivo, C57/BL6 mice; details: B16F10 model (Example 2.5); after intratumoral administration of 10 μg mRNA LNP
[5] = Body weight after intratumoral LNP administration (CT26 model); assay type: in vivo, Balb/c mice; details: after intratumoral administration of 10 μg mRNA LNP
Description: Fluc mRNA expression in tumor and liver was assessed at 6 an 24 hours post injection. By injecting mice peritoneally with D-luciferin (Promega), bioluminescence can be measured through in vivo imaging (IVIS Spectrum System). Bioluminescence is generated through an oxidation reaction which occurs between the enzyme luciferase derived from the firefly mRNA encapsulated in the LNP and its substrate D-luciferin. The Living Image Software (PerkinElmer) was used to specify tumor and liver ‘region of interests (ROIs) after which the average radiance (p/s/cm^2/sr) was calculated within these ROIs. To monitor tolerability of different LNP types used, bodyweight at 6 and 24 hours post injection was compared to baseline bodyweight at day of randomization.
Balb/c mice were subcutaneously inoculated with CT26 tumor cells. When tumors reached a mean volume of 50-100 mm^3, tumors were injected with the respective mRNA LNPs (10 μg mRNA; 20 μl volume; TBS buffer) or with control buffer.

[6] = Table 6 (Example 4, HA mRNA), ionizable lipid/DSPC/Chol/DMG-PEG2000 50/10/38.5/1.5 mol %
[7] = Table 6 (Example 4, HA mRNA), ionizable lipid/DSPC/Chol/DMG-PEG2000 50/10/38.5/1.5 mol %, N/P 10
[8] = Table 2, LNP ionizable lipid/DOPE/cholesterol/DMG-PEG2000 about 50/10/38.5/1.5
[9] = Table 3, LNP ionizable lipid/phospholipid/cholesterol/DMG-PEG2000 about 50/10/38.5/1.5, DOPE, except MC-3 with DSPC
[10] = Table 2, LNP ionizable lipid/DOPE/cholesterol/DMG-PEG2000 about 50/10/38.5/1.5, eGFP mRNA
[11] = Table 2, LNP ionizable lipid/DOPE/cholesterol/DMG-PEG2000 about 50/10/38.5/1.5, eGFP mRNA, mRNA/ionizable lipid molar ratio 1/10, in nm (unit assumed)
[12] = Table 3, LNP ionizable lipid/phospholipid/cholesterol/DMG-PEG2000 about 50/10/38.5/1.5, DOPE, except MC-3 with DSPC, eGFP mRNA
[13] = Table 3, LNP ionizable lipid/phospholipid/cholesterol/DMG-PEG2000 about 50/10/38.5/1.5, DOPE, except MC-3 with DSPC, eGFP mRNA, in nm (unit assumed)
[14] = Table 5, ionizable lipid/DSPC/Chol/DMG-PEG2000 50/10/38.5/1.5 mol %, E7 mRNA
[15] = Table 7, Ratio 1: 50/10/38.5/1.5 mol % ionizable lipid/DSPC (SS-EC: DOPE)/Chol/DMG-PEG2000

SMILES | % encap [1, 8] [%] | % encap [1, 9] [%] | PDI [2, 10] | size [2, 11] | PDI [2, 12] | size [2, 13] | further results
CCCCCCCCC(CCCCCC)C(=O)OCCN(CCOC(=O)C(CCCCCC)CCCCCCCC)C(=O)OCCSSCCOC(=O)NCCN1CCN(C)CC1 (centres unmarked) [S-Amp-DHDa] |  |  |  |  |  |  | E.E. (encapsulation efficiency) [1, 6]: 99%; PDI [2, 7]: 0.1515; size [2, 7]: 106.3 nm
CCCCCCCCCCCCCCCCCCN(CCCCCCCCCCCCCCCCCC)C(=O)OCCSSCCOC(=O)NCCN1CCCCCC1 [S-Ac7-Dsa] | 99 | 93 | 0.188 | 71.05 | 0.158 | 89.44 | 
CCCCCCCCC(CCCCCC)C(=O)OCCN(CCOC(=O)C(CCCCCC)CCCCCCCC)C(=O)OCCSSCCOC(=O)NCCN(C)C (centres unmarked) [S-Adm-DHDa] |  |  |  |  |  |  | E.E. (encapsulation efficiency) [1, 6]: 98%; PDI [2, 7]: 0.184; size [2, 7]: 79.075 nm
CCCCCCCCCCCCCCCCCCN(CCCCCCCCCCCCCCCCCC)C(=O)OCCSSCCOC(=O)NCCN(C(C)C)C(C)C [S-Adip-Dsa] | 101 |  | 0.153 | 70.9 |  |  | 
CCCCCCCC/C=C\CCCCCCCC(=O)OCC(CNC(=O)OCCOCCOC(=O)NCCN1CCCCCC1)OC(=O)CCCCCCC/C=C\CCCCCCCC (centres unmarked) [E-Ac7-Dog] |  | 100 |  |  | 0.258 | 93.05 | 
CCCCCCCCCCCCN(CCCCCCCCCCCC)C(=O)OCCSSCCOC(=O)NCCN1CCCCCC1 [S-Ac7-Dda] | 95 |  | 0.223 | 74.28 |  |  | 
CCCCCCCC/C=C\CCCCCCCC(=O)OCC(CNC(=O)OCCOC(C)(C)OCCOC(=O)NCCCN1CCCCC1CC)OC(=O)CCCCCCC/C=C\CCCCCCCC (centres unmarked) [K-Ac6e-DOg] |  | 95 |  |  | 0.268 | 75.8 | 
CCCCCCCC/C=C\CCCCCCCC(=O)OCC(CNC(=O)OCCOC(C)(C)OCCOC(=O)NCCN(C)C)OC(=O)CCCCCCC/C=C\CCCCCCCC (centres unmarked) [K-Adm-DOg] |  | 94 |  |  | 0.157 | 91.9 | 
CCCCCCCC/C=C\CCCCCCCC(=O)OCC(CNC(=O)OCCSSCCOC(=O)NCCN(C)C)OC(=O)CCCCCCC/C=C\CCCCCCCC (centres unmarked) [S-Adm-DOg] |  | 98 |  |  | 0.3 | 68.08 | 
CCCCCCCC/C=C\CCCCCCCC(=O)OCC(CNC(=O)OCCOCCOC(=O)NCCCN1CCCCC1CC)OC(=O)CCCCCCC/C=C\CCCCCCCC (centres unmarked) [E-Ac6e-DOg] |  | 100 |  |  | 0.241 | 67.3 | 
CCCCCCCC/C=C\CCCCCCCC(=O)OCC(CNC(=O)OCCOC(C)(C)OCCOC(=O)NCCN1CCCCCC1)OC(=O)CCCCCCC/C=C\CCCCCCCC (centres unmarked) [K-Ac7-DOg] |  | 93 |  |  | 0.108 | 62.26 | E.E. (encapsulation efficiency) [1, 14]: 49%; PDI [3, 14]: 0.130; size [3, 14]: 164.8 nm
CCCCC/C=C\C/C=C\CCCCCCCCC(CCCCCCCC/C=C\C/C=C\CCCCC)OC(=O)CCCN(C)C [MC3, reference compound] | 100 | 94 | 0.103 | 73.14 | 0.08 | 73.33 | body weight [4]: significant body weight loss; E.E. (encapsulation efficiency) [1, 14]: 99%; E.E. (encapsulation efficiency) [1, 15]: 96%; body weight [5]: significant body weight loss; PDI [3, 14]: 0.106; size [3, 14]: 67.57 nm; PDI [3, 15]: 0.117; size [3, 15]: 74 nm
CCCCCCCC/C=C\CCCCCCCC(=O)OCC(CNC(=O)OCCSSCCOC(=O)NCCCN1CCCCC1CC)OC(=O)CCCCCCC/C=C\CCCCCCCC (centres unmarked) [S-Ac6e-DOg] |  | 95 |  |  | 0.311 | 63.86 | E.E. (encapsulation efficiency) [1, 14]: 92%; PDI [3, 14]: 0.266; size [3, 14]: 178.1 nm
CCCCCCCCCCCCN(CCCCCCCCCCCC)C(=O)OCCOC(C)(C)OCCOC(=O)NCCN(C)C [K-Adm-Dda] | 100 |  | 0.197 | 65.56 |  |  | 
CCCCCCCC/C=C\CCCCCCCC(=O)OCC(CNC(=O)OCCOCCOC(=O)NCCN(C)C)OC(=O)CCCCCCC/C=C\CCCCCCCC (centres unmarked) [E-Adm-Dog] |  | 100 |  |  | 0.217 | 59.56 | 
CCCCCCCCCCCCN(CCCCCCCCCCCC)C(=O)OCCSSCCOC(=O)NCCN(C(C)C)C(C)C [S-Adip-Dda] | 98 |  | 0.197 | 86.95 |  |  | 
CCCCCCCCCCCCCCCCCCN(CCCCCCCCCCCCCCCCCC)C(=O)OCCSSCCOC(=O)NCCN(C)C [S-Adm-Dsa] | 98 | 100 | 0.042 | 82.11 | 0.137 | 91.15 | 
CCCCCCCCCCCCN(CCCCCCCCCCCC)C(=O)OCCOC(C)(C)OCCOC(=O)NCCN(C(C)C)C(C)C [K-Adip-Dda] | 97 |  | 0.292 | 78.59 |  |  | 
CCCCCCCCCCCCN(CCCCCCCCCCCC)C(=O)OCCSSCCOC(=O)NCCN(C)C [S-Adm-Dda] | 100 |  | 0.44 | 115.3 |  |  | 
